# Read-outs that look alike come from different tables or passages of the source.
# Columns and labels:
# tubulin = molecular target: T1, tubulin (Sus scrofa, UniProt P02550+P02554); assay: Tubulin assembly assay (tubulin binding); assay type: biochemical, porcine
# T1 construct: The procedure used is modified from Shelanski et al; from tissue
# Experimental: The buffer was prepared with deionised water and the pH of the solution was adjusted to 6.6 by the drop-wise addition of 10M aq. NaOH. The buffer was stored at 4° C. prior to use.
# Equipment: A Fluostar Optima 96 well plate reader equipped with a thermostat capability.
# The tubulin assembly was followed by observing an increase in optical density of a tubulin solution at 350 nm at 37° C. Typically 1 ml of tubulin solution was diluted with EB (5 ml) and GTP solution (25 μl, 5 μl per ml of EB added) to the mixture. The mixture was vortexed for ten seconds in order to ensure the homogeneity of the mixture. 100 μl of the resultant solution was pipetted into a well in the 96 well plate. The increase in optical density of the tubulin solution was measured over a time course of ten minutes at 350 nm and 37° C. […] Accordingly, adjustments were made to the quantity of buffer added in order to obtain a protein concentration within the desired range. […] Tubulin solution (1000 was subsequently pipetted into each of the same three wells. The plate was immediately incubated at 37° C. and was subjected to orbital shaking for five seconds. The UV absorption was measured at 350 nm over a time course of ten minutes. The maximum slope of the resulting curve was measured. The slope of the blank represents the maximum rate of tubulin polymerisation.
# HUVECs [1] = assay: Cell cycle analysis, G2/M phase, PI staining and flow cytometry; assay type: cell-based, human; settings: 24 h treatment
# From the text: Proliferating cells are constantly dividing to produce daughter cells. The most obvious cellular structure that requires duplication and division is the cell nucleus where DNA, cell's genetic material is present. During a cell cycle there are changes in the DNA content and thus there are different cycle stages including G0, G1, S, G2 and M (mitosis). The G0 stage of the cycle is a subset of G1 where the cells are quiescent and have limited cellular functions. Cells remain in the G1 portion of the cycle when are not in a process of cell division and thus G1 phase is the most predominant phase of the cycle appearing as the largest peak. In addition, during the G1 phase synthesis of many RNA and protein molecules is taking place which are necessary for DNA synthesis. G2 phase is a period for repair of any damaged DNA and for reorganisation of the DNA structure before entering the M phase. Cell cycle abnormalities could be a sign of cell damage, for example DNA damage causes interruption of the cell cycle at certain checkpoints such as the spindle assembly checkpoint (SAC) to prevent carcinogenesis.
# The mitotic spindle is composed of microtubules which together with regulatory proteins assist in the activity of properly segregating replicated chromosomes. It is well established that treatment of cells with tubulin polymerization inhibitors causes a G2/M phase arrest of the cell cycle and thus an observable increased DNA content at that stage.
# For this reason, cell cycle analysis was carried out using propidium iodide (PI) staining. The first protocol was presented by Krishan in 1975 [6]. The first step involves permeabilisation of the cells' plasma membrane by fixating the cells in ethanol in order for the fluorescent DNA dye to pass through the membrane and into the cells. Ribonuclease A (RNase A) was used to eliminate any RNA present inside the cells in order to avoid creating artefacts that could affect the results. PI was used for the staining of the cells' DNA content; however other fluorescent dyes can be used instead, such as DAPI and Hoechst 33342.
# Flow cytometry was used to quantify the DNA contents of the cells. This is a technique which was first introduced by Fulwyler which examines and counts cells or other microscopic particles by suspending them in a stream of fluid and passing them by an electronic detection apparatus. Cells had to pass through the flow cytometer's laser where a fluorescence pulse was generated and it correlated with the amount of DNA dye present inside the cells. […]
# Cell cycle arrest at the G2/M phase was examined by PI-staining. […] Cell suspension was kept at 4° C. until ready for analysis. […] Samples were analyzed using a Beckman Coulter (Dako) 2-laser CyAn ADP analyser provided by the Department of Biochemistry, TCD. […]
# [2] = molecular target: T2, APN enzyme present on PC-3 cells (Homo sapiens, UniProt P15144); assay: APN cell-based assay, PC-3 cells
# T2 construct: PC-3 cell line was selected due to its high expression of APN; host or cells: PC-3
# T2 sequence (P15144 whole entry): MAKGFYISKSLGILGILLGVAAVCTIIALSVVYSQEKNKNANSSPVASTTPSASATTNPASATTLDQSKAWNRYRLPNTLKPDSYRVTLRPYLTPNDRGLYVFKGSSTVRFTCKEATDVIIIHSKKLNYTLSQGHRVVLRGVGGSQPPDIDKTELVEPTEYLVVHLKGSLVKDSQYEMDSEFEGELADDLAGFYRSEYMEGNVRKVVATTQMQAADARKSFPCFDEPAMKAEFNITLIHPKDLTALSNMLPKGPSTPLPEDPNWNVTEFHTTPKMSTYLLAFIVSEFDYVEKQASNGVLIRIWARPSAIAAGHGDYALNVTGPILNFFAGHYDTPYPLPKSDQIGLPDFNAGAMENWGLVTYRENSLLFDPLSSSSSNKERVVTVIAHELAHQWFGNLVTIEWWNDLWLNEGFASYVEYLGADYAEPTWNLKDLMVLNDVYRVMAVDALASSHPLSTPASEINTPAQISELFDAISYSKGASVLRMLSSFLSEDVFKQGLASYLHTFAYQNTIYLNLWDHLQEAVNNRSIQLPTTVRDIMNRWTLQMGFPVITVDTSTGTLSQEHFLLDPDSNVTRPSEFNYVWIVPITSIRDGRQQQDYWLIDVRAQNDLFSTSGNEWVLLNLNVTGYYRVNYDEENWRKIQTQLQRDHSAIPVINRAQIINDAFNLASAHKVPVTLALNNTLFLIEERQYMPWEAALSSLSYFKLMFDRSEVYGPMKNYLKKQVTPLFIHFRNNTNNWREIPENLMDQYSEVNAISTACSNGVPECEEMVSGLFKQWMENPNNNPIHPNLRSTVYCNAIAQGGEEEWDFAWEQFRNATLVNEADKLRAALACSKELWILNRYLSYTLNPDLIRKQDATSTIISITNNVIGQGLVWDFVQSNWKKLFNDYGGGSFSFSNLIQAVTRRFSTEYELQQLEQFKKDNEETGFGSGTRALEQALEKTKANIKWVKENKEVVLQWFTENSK
# Experimental: (§1) To further investigate the APN inhibitory effect of the hybrids the APN cell-based assay was carried out as previously described using both HUVECs and PC-3 cells. In order to exclude any possible cytotoxic effects of the tubulin component of the hybrids that could interfere with the outcome of the results, it was necessary to perform cytotoxicity assays. For this purpose, the MTT assay was used as previously described; however the duration of compounds' incubation was modified to 2 h in order to correlate with the incubation period of APN cell-based assay. The presence of APN-expres sing cells replaced the step of the addition of the actual APN enzyme and the rest of the protocol remained the same. The release of the resulting product p-nitroaniline was measured spectrophotometrically at 405 nm and the level of APN present […] the cells was directly related to the intensity of the colour absorbance.
# (§2) HUVECs/PC-3 cells' surface APN activity was estimated spectrophotometrically using L-leucine-p-nitroanilide as an APN substrate. 1×10^6 cells/ml ([…]) were seeded in 96-well plate and incubated overnight at 37° C. The following day cell medium was replaced by various concentrations of compounds diluted in HEPES buffer (100 μl). […] L-leucine-p-nitroanilide (50 μl) was added to each well to give a final concentration of 2 mM. Following 2 h incubation at 37° C., absorbance was measured at 405 nm using a FLUOstar OPTIMA microplate reader (BMG labtech). Each compound concentration was tested in quadruplicate and each experiment was performed at three independent times. The percentage APN inhibition was determined using the formula below and where appropriate, IC50 values were obtained.
# (§3) % APN inhibition=100−[(mean Abs of test compound)/(mean Abs of control)]*100
# [3] = molecular target: T3, APN enzyme present on HUVECs (Homo sapiens, UniProt P15144); assay: APN cell-based assay, HUVECs
# T3 construct: The presence of APN-expres sing cells replaced the step of the addition of the actual APN enzyme; host or cells: HUVECs
# T3 sequence (P15144 whole entry): as above
# Experimental: as §1, §2, §3
# HUVECs [4] = assay: MTT cytotoxicity assay, HUVECs; assay type: cell-based, human
# Experimental: as §1
# Cell growth inhibition was assessed using the MTT assay. 5×10^4 cells/ml HUVECs or PC-3 cells (180 μl) were inoculated into each well of a 96-well plate and incubated overnight at 37° C. Compounds or control solutions (20 μl) were added into each well and the plates were incubated for 72 h. CA-4 was used as a positive control. […] The percentage growth inhibition was determined using the formula below and the results were expressed in terms of IC50 values.
# [5] = HUVEC, read-out: percentage APN inhibition
# T1 sequence (P02550 whole entry): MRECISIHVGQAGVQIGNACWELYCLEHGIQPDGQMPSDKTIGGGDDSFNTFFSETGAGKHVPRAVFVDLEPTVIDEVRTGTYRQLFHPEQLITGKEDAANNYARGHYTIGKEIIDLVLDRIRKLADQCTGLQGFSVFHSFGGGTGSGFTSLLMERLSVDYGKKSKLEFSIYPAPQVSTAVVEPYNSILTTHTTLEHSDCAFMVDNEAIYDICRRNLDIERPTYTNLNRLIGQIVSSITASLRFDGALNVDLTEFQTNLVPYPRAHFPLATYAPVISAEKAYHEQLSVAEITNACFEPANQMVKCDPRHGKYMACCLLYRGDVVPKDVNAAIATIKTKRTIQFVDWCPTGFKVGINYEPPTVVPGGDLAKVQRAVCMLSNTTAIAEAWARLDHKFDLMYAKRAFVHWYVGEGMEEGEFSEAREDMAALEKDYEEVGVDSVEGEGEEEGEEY
# T1 sequence (P02554 whole entry): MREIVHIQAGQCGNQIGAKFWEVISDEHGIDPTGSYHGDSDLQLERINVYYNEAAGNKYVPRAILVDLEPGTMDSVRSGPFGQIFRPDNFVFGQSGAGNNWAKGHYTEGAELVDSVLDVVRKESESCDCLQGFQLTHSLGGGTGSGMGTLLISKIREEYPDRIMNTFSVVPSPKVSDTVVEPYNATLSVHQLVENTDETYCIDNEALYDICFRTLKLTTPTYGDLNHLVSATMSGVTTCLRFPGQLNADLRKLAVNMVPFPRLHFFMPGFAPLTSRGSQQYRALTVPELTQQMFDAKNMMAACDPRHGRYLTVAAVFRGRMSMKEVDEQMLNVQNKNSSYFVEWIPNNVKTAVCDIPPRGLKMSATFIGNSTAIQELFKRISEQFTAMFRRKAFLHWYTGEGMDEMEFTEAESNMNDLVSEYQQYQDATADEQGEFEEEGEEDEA
compound,measurement,setting,value
"COc1ccc(C2=CC(=O)CCc3c2cc(OC)c(OC)c3OC)cc1O [Compound 1, (Z)-8,9-dihydro-5-(3-hydroxy-4-methoxyphenyl)-1,2,3-trimethoxybenzo[7]annulen-7-one]",IC50,tubulin,1.05 µM
same,percentage of cells in the G2/M phase,HUVECs [1]; 0.5 μM,86.3±2.3%
same,percentage of cells in the G2/M phase,HUVECs [1]; 1 μM,79.35±1.7%
COc1ccc(C2=CC(=O)CCc3c2cc(OC)c(OC)c3OC)cc1OC(=O)C(CC(C)C)NC(=O)C(O)C(N)Cc1ccccc1.Cl (centres unmarked) [Compound 44],percentage APN inhibition,"[2]; 1 μM, PC-3 cells, 2 h incubation",31.3±8.9%
same,percentage APN inhibition,"[2]; 5 μM, PC-3 cells, 2 h incubation",51.7±8.5%
same,percentage APN inhibition,"[2]; 10 μM, PC-3 cells, 2 h incubation",55.7±9.8%
same,percentage APN inhibition,"[2]; 20 μM, PC-3 cells, 2 h incubation",71.4±7.5%
same,inhibition at 1 µM,"[2]; PC-3, read-out: percentage APN inhibition, 1 μM, PC-3 cells, 2 h incubation",27.8 ± 2.1%
same,inhibition at 5 µM,"[2]; PC-3, read-out: percentage APN inhibition, 5 μM, PC-3 cells, 2 h incubation",44.6 ± 7.3%
same,inhibition at 10 µM,"[2]; PC-3, read-out: percentage APN inhibition, 10 μM, PC-3 cells, 2 h incubation",63.7 ± 7.68%
same,inhibition at 20 µM,"[2]; PC-3, read-out: percentage APN inhibition, 20 μM, PC-3 cells, 2 h incubation",53.4 ± 16.1%
same,APN inhibition relative to bestatin,[2]; PC-3 cells,2 fold
same,inhibition at 0.1 µM,[3]; [5],31.9 ± 19%
same,inhibition at 1 µM,[3]; [5],52.6 ± 14.7%
same,inhibition at 5 µM,[3]; [5],64 ± 16.1%
"COc1ccc(C2=CC(=O)COc3c2cc(OC)c(OC)c3OC)cc1OC(=O)C(CC(C)C)NC(=O)C(O)C(N)Cc1ccccc1.Cl (centres unmarked) [Compound 45, 2-methoxy-5-(7,8,9-trimethoxy-3-oxo-2H-1-benzoxepin-5-yl)phenyl 2-(3-amino-2-hydroxy-4-phenylbutanamido)-4-methylpentanoate]",inhibition at 1 µM,"[2]; 1 μM, PC-3 cells, 2 h incubation, read-out: percentage APN inhibition",47.9 ± 1.23%
same,inhibition at 5 µM,"[2]; 5 μM, PC-3 cells, 2 h incubation, read-out: percentage APN inhibition",51.7 ± 1.38%
same,inhibition at 10 µM,"[2]; 10 μM, PC-3 cells, 2 h incubation, read-out: percentage APN inhibition",51.9 ± 3.89%
same,inhibition at 20 µM,"[2]; 20 μM, PC-3 cells, 2 h incubation, read-out: percentage APN inhibition",56.5 ± 3.13%
same,APN inhibition relative to bestatin,[2]; PC-3 cells,significantly more potent APN inhibitor than bestatin
same,cytotoxic effect on HUVECs,HUVECs [4],potent cytotoxic effect
same,inhibition at 0.1 µM,"[3]; HUVEC, 0.1 μM, HUVECs, 2 h incubation, read-out: percentage APN inhibition",18.1 ± 2.9%
same,inhibition at 0.5 µM,"[3]; HUVEC, 0.5 μM, HUVECs, 2 h incubation, read-out: percentage APN inhibition",21.6 ± 2.2%
same,APN inhibition relative to bestatin,[3]; HUVECs,superior activity to that of bestatin
"COc1ccc(C2=CC(=O)CCc3c2cc(OC)c(OC)c3OC)cc1N [Compound 28, 2-methoxy-5-(2,3,4-trimethoxy-7-oxo-6,7-dihydro-5H-benzo[7]annulen-9-yl)benzenaminium chloride]",percentage of cells in the G2/M phase,HUVECs [1]; 0.5 μM,81.25±0.6%
same,percentage of cells in the G2/M phase,HUVECs [1]; 1 μM,76.07±4.82%

# From patent US20150018566A1, “TUBULIN BINDING AGENTS” (priority 2011, published 2015)
